Patent US8460904B2, “Method of producing reduced coenzyme Q10” (Zhejiang Zhongning Business Co., Ltd., priority 2008, dated 2013)

Key:
[1] = Stability / shelf life of the obtained reduced coenzyme Q10; type: physicochemical
[2] = Water-solubility after phosphorylation; type: physicochemical; settings: usable on injection

Compound: COc1c(O)c(C)c(C/C=C(\C)CC/C=C(\C)CC/C=C(\C)CC/C=C(\C)CC/C=C(\C)CC/C=C(\C)CC/C=C(\C)CC/C=C(\C)CC/C=C(\C)CCC=C(C)C)c(O)c1OC [reduced coenzyme Q10]
- shelf life ([1]; below 50° C.): over 2 years
- stability in phosphoric acid solution ([1]; phosphoric acid solution of pH6.0-8.2): remains its qualities
- water-solubility [2]: completely water soluble
